One may read the EC50 as the concentration needed to bring the measured effect to its halfway point. What is called CC50 is the concentration that lowers cell viability or growth by half. A low value points to harm at low concentration.

Format in all cases: cell-based
Series [1] concerns HBV. Nature of the series: Anti-HBV activity, HepG2.2.15 stable transfected cell line, HBV DNA from secreted virions by realtime PCR. As to conditions: Hepatitis B virus, 144 h, HepG2.2.15 cells, 6 days of treatment.
A short description of series [2]: Cytotoxicity in HepG2 cells, Resazurin assay. As to conditions: human, incubated 4 days, Resazurin viability. For orientation: The colour change of resazurin is a common sign of viable cells or microbes.
In series [3] the test system is HBV. Description: Anti-HBV activity, HepG2.117 inducible HBV producing cell line (Tet-off), intracellular HBV DNA by realtime PCR. As to conditions: Hepatitis B virus, 72 h, HepG2.117 cells, 3 days of treatment.

SMILES strings stand for the structures. Where only a bound is given, the exact number is not on record here.

Take `Cc1cc(NC(=O)c2cccc(S(=O)(=O)N[C@H](C)CNC(=O)OC(C)(C)C)c2)ccc1F` [Compound 18]: the figures for the EC50 with HBV [1] and in the series on HBV [3] were 200 nM and 190 nM, respectively. Moreover, the CC50 at 4 days in series [2] was > 25 µM.

(Values after patent US10941113B2, “Sulfamoyl-arylamides and the use thereof as medicaments for the treatment of hepatitis B” (Janssen Sciences Ireland UC, priority 2013, dated 2021).)
